The values below come from patent publication US20060094668A1 (Wyeth, priority 2004, published 2006).

For data set [1] the following is noted: literature case reports and studies; cited from earlier work.
Data set [2] can be described thus: clinical. The conditions noted are these: human, in vivo. As for the experimental part: Both study medications were always administered 1 hour after a medium-fat meal. Tigecycline was administered intravenously (IV) in […] sterile normal saline over 30 minutes for all doses.
At approximately 8 AM, each subject received 100 mg of tigecycline. […] At approximately 8 PM, each subject received 50 mg of tigecycline.
In addition, on days 16 through 18, each subject received 50 mg of tigecycline every 12 hours (at approximately 8 AM and 8 PM).
All samples were collected from an indwelling catheter or by direct venipuncture into blood collection tubes containing ethylenediaminetetraacetic acid.
The Cmax and tmax values were taken directly from the observed data. The λz and t1/2 values were not estimable because blood samples were not collected during the terminal disposition phase.
Vss/F and MRT could not be calculated because λz could not be estimated.
(§1) Geometric least-squares (GLS) mean ratios of tigecycline PK parameters were computed, and their associated 90% confidence intervals (Cls) calculated based on least squares means and the mean square error obtained from the 2-way ANOVA. […] The SAS statistical software package was used for all statistical analyses.

Data set [3] in a line: Urinary digoxin pharmacokinetics (Ae, CLr), digoxin alone vs with tigecycline. To be noted: N = 20; for CL renal: human, urine and plasma, oral, 0.25 mg, CLr. The source says:
In addition, a 24-hour urine collection (day 14 to day 15) for PK analysis was completed for each subject.
Subjects were required to void completely at the end of the predose period and at the end of each time interval after dose administration to ensure a complete interval collection.
Pharmacodynamic Assessments

The nature of data set [4]: clinical. The conditions noted are these: human, in vivo; for AUC(0-t): AUC0-12 h; for Vd: Vss. How it is done: One (1) hour after a medium-fat meal, and after a predose 7-mL blood sample for a baseline tigecycline PK analysis, each subject received a single 100-mg dose of tigecycline.
Venous blood samples (7 mL each) for determination of tigecycline concentrations in serum were collected at the following times: on day 1, predose (within 2 hours before the start of the tigecycline infusion), and at 0.5 (end of infusion), 1, 1.5, 2, 3, 4, 6, 8,12,16, 24, 36, 48, 72, and 96 hours after tigecycline administration; and on day 19, predose, and at 0.5 (end of infusion), 1,1.5, 2, 3, 4, 6, 8, 12,16, 24, 36, 48, 72, and 96 hours after tigecycline administration.
Serum tigecycline samples were analyzed by a validated liquid chromatography/tandem mass spectroscopy (LC/MS/MS) method.
Tigecycline peak serum concentration (Cmax) and time to peak concentration (tmax) were reported from the observed data. Concentrations that were judged to be in the terminal phase were used to obtain the terminal-phase disposition rate constant (λz) by log-linear regression. The half-life (t1/2) was calculated as 0.693/λz. Tigecycline concentrations over the time period from hours 24 to 96 were used to estimate the t1/2.
Total AUC0-εr and AUMC were estimated as follows: AUC=(AUCt)+Ct/λz, and AUMC=(AUMCt)+tlast·Ct/λz+Ct/λz●2
The IV clearance (CL) was calculated and normalized by body weight (WT) as follows: CL=Dose/(AUC●WT). The apparent Vss was estimated by Vss=CL·MRT.
For this period of the study, the MRT was calculated as: MRT=(AUMC0-t+(t·Ctλz))/AUC0-t.
According to linear PK theory, (Gibaldi M, Perrier D. Pharmacokinetics. Marcel Dekker, Inc., 1982) the total AUC after a single dose (AUC0-∞) is equal to AUC over the dose interval τ at steady state (AUC0 τ).
For statistical comparisons, AUC, MRT, and Vss on day 1 (period 1) were based on concentrations normalized to the 50-mg tigecycline dose given during period 3.
as §1

Data set [5] is classed as in vivo, human.
From the text: On each day before the start of study periods 1 and 2 (day-1 and day 6), all subjects underwent physical examinations, laboratory tests, vital sign assessments, and a standard 12-lead electrocardiogram (ECG), which included measurements of rhythm, heart rate, PR, QRS, QT, and QTc intervals. Adverse event monitoring was continuous, and blood samples for PK analysis was completed at the designated times throughout all study periods. Before dose administration on days 1, 7 and 15, 3 complete ECGs were performed for each subject, and the mean value used as the subject's baseline for each corresponding period.
Twelve (1 2)-lead ECGs were performed at screening, on day-1, on days 1, 7, 14, 15, and 19 within 2 hours before study drug administration, on days 2 through 6, 8 through 13, 16 through 18, 20, 21, and 22, and at the final evaluation at approximately 8 AM.
Descriptive statistics were obtained for all demographic characteristics, drug concentrations, PK parameters, and changes from baseline in ECG parameters. Analysis of variance (ANOVA) was performed on the natural logarithm-transformed PK parameters to evaluate treatment and subject effects. An analysis of the change from baseline in ECG parameters with and without multiple-dose tigecycline administration was conducted by using ANOVA, which included terms for subject and treatment effects. […]

Each structure is given as a SMILES string.

On to `CC[C@H]1OC(=O)[C@H](C)[C@@H](O[C@H]2C[C@@](C)(OC)[C@@H](O)[C@H](C)O2)[C@H](C)[C@@H](O[C@@H]2O[C@H](C)C[C@H](N(C)C)[C@H]2O)[C@](C)(OC)C[C@@H](C)C(=O)[C@H](C)[C@@H](O)[C@]1(C)O` [Clarithromycin], for which the “effect on plasma levels of digoxin” value in data set [1] is “increase plasma levels of digoxin, sometimes to toxic levels”.
In “clinical [2]”, `C[C@H]1O[C@@H](O[C@H]2[C@@H](O)C[C@H](O[C@H]3[C@@H](O)C[C@H](O[C@H]4CC[C@@]5(C)[C@H](CC[C@@H]6[C@@H]5C[C@@H](O)[C@]5(C)[C@@H](C7=CC(=O)OC7)CC[C@]65O)C4)O[C@@H]3C)O[C@@H]2C)C[C@H](O)[C@@H]1O` [Digoxin] registered a concentration at 0 h of 0.405 ng/mL, a concentration at 0.5 h of 0.686 ng/mL, a concentration at 1 h of 1.02 ng/mL and a concentration at 2 h of 0.966 ng/mL. In “clinical [2]”, this compound yielded a concentration at 4 h of 0.645 ng/mL, a concentration at 6 h of 0.517 ng/mL, a concentration at 8 h of 0.531 ng/mL and a concentration at 10 h of 0.451 ng/mL. In addition, in the data set “clinical [2]”, the concentration at 12 h was determined as 0.405 ng/mL, the concentration at 16 h is 0.383 ng/mL and the concentration at 24 h stood at 0.33 ng/mL. Also, the “Ae, urinary digoxin, Geo. Mean” value in data set [3] is listed as 40.3%. Moreover, the CL renal in data set [3] (digoxin renal clearance, Mean ± SD) stood at 1.82 ± 0.37 mL/min/kg. This compound also yielded a CL renal in data set [3] (digoxin, Geo. Mean) of 1.79 mL/min/kg. Moreover, in data set [3] (percentage of dose excreted unchanged in urine 0-24 h), the “Ae, urinary digoxin, Mean ± SD” value is 41.3 ± 9.0%. The “effect on the AUC, CL, or MRT of tigecycline” value in “clinical [4]” is given as “did not affect”.
The term clearance denotes a measure of how efficiently the substance is removed, as volume per time. As a reminder, the half-life is how long it takes for the measured level to halve. As a reminder, the AUC(0-t) is exposure summed from dosing to a finite time, without extrapolation to infinity. A high value points to high exposure. For orientation: AUC means concentration integrated over time. For orientation: MRT means the average time that molecules of a dose stay in the body. The term Vd denotes the apparent volume that relates the amount in the body to the concentration in plasma or blood. In “clinical [4]”, `CN(C)c1cc(NC(=O)CNC(C)(C)C)c(O)c2c1C[C@H]1C[C@H]3[C@H](N(C)C)C(O)=C(C(N)=O)C(=O)[C@@]3(O)C(O)=C1C2=O` [Tigecycline] had a clearance of 3.7 mL/min/kg and a half-life of 1600 min. Moreover, in “clinical [4]” (serum tigecycline, Geo. Mean), the AUC(0-t) amounted to 2450 ng·h/mL, the MRT was found to be 29 h and the Vd came out at 6.43 L/kg. For the same compound, in “clinical [4]” (serum tigecycline, Mean ± SD), the AUC(0-t) was 2480 ± 379 ng·h/mL, the MRT is 30 ± 8.3 h and the Vd amounted to 6.53 ± 1.3 L/kg. The AUC in the data set “clinical [4]” (AUC, serum tigecycline, Mean ± SD) was 2840 ± 732 ng·h/mL. The same compound showed a clearance in “clinical [4]” (iv) of 3.82 mL/min/kg. For the same compound, in data set [5] (PR, QRS, QT, QTc intervals at 24 hours), the “effect on steady-state digoxin PD as measured by changes from baseline in ECG parameters” value is given as “did not produce significant changes”. The “QT interval, change from baseline” value in data set [5] (in vivo) was “not changed further”.
